# Experiments:
# [1] = biological target: T1, Folylpolyglutamate synthase, mitochondrial (Homo sapiens, UniProt Q05932); assay: Inhibitory constant against purified Folyl-polyglutamate synthase obtained from human
# T1 sequence (Q05932 whole entry): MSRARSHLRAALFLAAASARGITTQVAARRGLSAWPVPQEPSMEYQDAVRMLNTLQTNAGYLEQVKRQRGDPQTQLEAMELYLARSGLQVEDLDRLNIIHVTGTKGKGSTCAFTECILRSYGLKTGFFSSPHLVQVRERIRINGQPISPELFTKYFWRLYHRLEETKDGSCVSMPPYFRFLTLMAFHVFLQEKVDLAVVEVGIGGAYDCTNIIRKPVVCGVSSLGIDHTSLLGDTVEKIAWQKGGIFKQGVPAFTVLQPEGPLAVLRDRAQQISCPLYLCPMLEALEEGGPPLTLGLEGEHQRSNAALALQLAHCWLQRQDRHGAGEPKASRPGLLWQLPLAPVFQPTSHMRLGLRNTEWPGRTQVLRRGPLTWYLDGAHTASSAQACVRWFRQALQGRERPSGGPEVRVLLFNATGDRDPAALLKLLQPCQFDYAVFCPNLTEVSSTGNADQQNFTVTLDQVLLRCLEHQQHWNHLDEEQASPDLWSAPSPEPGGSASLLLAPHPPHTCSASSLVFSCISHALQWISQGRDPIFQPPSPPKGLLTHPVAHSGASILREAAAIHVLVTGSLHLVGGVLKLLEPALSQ
# [2] = biological target: T2, Folylpolyglutamate synthase, mitochondrial (Mus musculus, UniProt P48760); assay: Inhibitory constant against purified Folyl-polyglutamate synthase obtained from mouse liver
# T2 sequence (P48760 whole entry): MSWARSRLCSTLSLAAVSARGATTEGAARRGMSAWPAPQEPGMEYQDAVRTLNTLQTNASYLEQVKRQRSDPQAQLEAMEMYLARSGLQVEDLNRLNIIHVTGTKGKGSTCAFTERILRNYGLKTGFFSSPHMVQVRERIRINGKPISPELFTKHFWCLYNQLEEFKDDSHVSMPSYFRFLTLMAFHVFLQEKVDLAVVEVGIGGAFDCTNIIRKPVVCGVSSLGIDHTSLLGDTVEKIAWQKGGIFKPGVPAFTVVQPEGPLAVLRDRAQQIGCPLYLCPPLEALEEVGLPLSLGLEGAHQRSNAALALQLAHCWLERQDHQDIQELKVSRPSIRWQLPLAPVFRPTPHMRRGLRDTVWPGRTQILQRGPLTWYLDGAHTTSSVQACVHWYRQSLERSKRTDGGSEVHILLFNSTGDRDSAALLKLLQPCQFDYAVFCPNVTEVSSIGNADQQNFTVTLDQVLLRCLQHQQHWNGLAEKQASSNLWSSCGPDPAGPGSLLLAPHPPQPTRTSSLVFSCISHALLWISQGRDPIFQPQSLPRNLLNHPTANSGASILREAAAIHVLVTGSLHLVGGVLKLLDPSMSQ
# Dihydrofolate reductase = biological target: T3, Dihydrofolate reductase (Mus musculus, UniProt P00375); assay: biochemical
# T3 sequence (P00375 whole entry): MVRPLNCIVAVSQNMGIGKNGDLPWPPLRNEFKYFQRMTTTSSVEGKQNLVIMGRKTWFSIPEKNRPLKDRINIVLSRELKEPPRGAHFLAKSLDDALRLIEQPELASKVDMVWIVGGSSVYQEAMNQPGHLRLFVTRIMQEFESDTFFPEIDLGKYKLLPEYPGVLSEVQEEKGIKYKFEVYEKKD
# Description: Tested for inhibition against purified Dihydrofolate reductase from L1210 murine leukemia cells
# L1210 [3] = assay: Increase in life span of mice infected with L1210 leukemia after an intraperitoneal dose of 60 mg/kg for 9 days; type: functional; settings: Mus musculus, L1210, ip, 216 h
# [4] = biological target: T4, Folylpolyglutamate synthase, mitochondrial (Mus musculus) (UniProt P48760); assay: (§1) Tested for inhibition against purified Folyl-polyglutamate synthase from mouse liver; settings: concentration not given here
# T4 sequence (whole entry): T2 sequence (P48760 whole entry)
# L1210 [5] = assay: Increase in life span of mice infected with L1210 leukemia after an intraperitoneal dose of 40 mg/kg for 9 days; type: functional; settings: Mus musculus, L1210, ip, 216 h
# L1210 [6] = assay: Mean survival of mice infected with L1210 leukemia after an intraperitoneal dose of 40 mg/kg for 9 days; type: functional, Mus musculus
# CCRF-CEM [7] = assay: Tested for cell-growth inhibition against human leukemic lymphoblast CEM/MTX cells; type: functional, cell-based
# L1210 [8] = assay: Mean change in weight of mice infected with L1210 leukemia after 7 days after an intraperitoneal dose of 40 mg/kg; type: functional, Mus musculus
# L1210 [9] = assay: Range for the survival of mice infected with L1210 leukemia after an intraperitoneal dose of 20 mg/kg for 9 days; Range is 14-16; type: functional, Mus musculus
# L1210 [10] = assay: Mean survival of mice infected with L1210 leukemia after an intraperitoneal dose of 80 mg/kg for 9 days; type: functional, Mus musculus
# L1210 [11] = assay: Range for the survival of mice infected with L1210 leukemia after an intraperitoneal dose of 80 mg/kg for 9 days; Range is 9-16; type: functional, Mus musculus
# L1210 [12] = assay: Mean change in weight of mice infected with L1210 leukemia after 7 days after an intraperitoneal dose of 60 mg/kg; type: functional, Mus musculus
# L1210 [13] = assay: Range for the survival of mice infected with L1210 leukemia after an intraperitoneal dose of 40 mg/kg for 9 days; Range is 15-22; type: functional, Mus musculus
# L1210 [14] = assay: Mean survival of mice infected with L1210 leukemia after an intraperitoneal dose of 60 mg/kg for 9 days; type: functional, Mus musculus
# L1210 [15] = assay: Tested for cell-growth inhibition against mouse leukemic L1210 cells; type: functional, cell-based
# L1210 [16] = assay: Mean change in weight of mice infected with L1210 leukemia after 7 days after an intraperitoneal dose of 80 mg/kg; type: functional, Mus musculus
# [17] = biological target: T2, Folylpolyglutamate synthase, mitochondrial; assay: (§2) Inhibitory constant against purified Folyl-polyglutamate synthase from mouse liver
# L1210 [18] = assay: Mean survival of mice infected with L1210 leukemia after an intraperitoneal dose of 20 mg/kg for 9 days; type: functional, Mus musculus
# CCRF-CEM [19] = assay: Tested for cell-growth inhibition against human leukemic lymphoblast CEM cells; type: functional, cell-based
# L1210 [20] = assay: Range for the survival of mice infected with L1210 leukemia after an intraperitoneal dose of 60 mg/kg for 9 days; Range is 17-19; type: functional, Mus musculus
# L1210 [21] = assay: Increase in life span of mice infected with L1210 leukemia after an intraperitoneal dose of 80 mg/kg for 9 days; type: functional; settings: Mus musculus, L1210, ip, 216 h
# L1210 ( R81) = assay: Tested for cell-growth inhibition against mouse leukemic L1210/R81 cells; type: functional, cell-based
# L1210 [22] = assay: Mean change in weight of mice infected with L1210 leukemia after 7 days after an intraperitoneal dose of 20 mg/kg; type: functional, Mus musculus
# L1210 [23] = assay: Increase in life span of mice infected with L1210 leukemia after an intraperitoneal dose of 20 mg/kg for 9 days; type: functional; settings: Mus musculus, L1210, ip, 216 h
# Mus musculus [24] = organism: Mus musculus; assay: as §1; settings: concentration not given here
# [25] = as §2; type: functional
# L1210 [26] = assay: Range for the survival of mice infected with L1210 leukemia after an intraperitoneal dose of 20 mg/kg for 9 days; Range is 19-22; type: functional, Mus musculus
# L1210 [27] = assay: Range for the survival of mice infected with L1210 leukemia after an intraperitoneal dose of 80 mg/kg for 9 days; Range is 9-11; type: functional, Mus musculus
# L1210 [28] = assay: Range for the survival of mice infected with L1210 leukemia after an intraperitoneal dose of 40 mg/kg for 9 days; Range is 12-25; type: functional, Mus musculus
# L1210 [29] = assay: Range for the survival of mice infected with L1210 leukemia after an intraperitoneal dose of 60 mg/kg for 9 days; Range is 9-24; type: functional, Mus musculus
# L1210 [30] = assay: Range for the survival of mice infected with L1210 leukemia after an intraperitoneal dose of 20 mg/kg for 9 days; Range is 16-19; type: functional, Mus musculus
# Mus musculus [31] = organism: Mus musculus; assay: as §1; type: functional; settings: dose or concentration not given here
# L1210 [32] = assay: Range for the survival of mice infected with L1210 leukemia after an intraperitoneal dose of 80 mg/kg for 9 days; Range is 12-18; type: functional, Mus musculus
# L1210 [33] = assay: Range for the survival of mice infected with L1210 leukemia after an intraperitoneal dose of 40 mg/kg for 9 days; Range is 14-24; type: functional, Mus musculus
# L1210 [34] = assay: Range for the survival of mice infected with L1210 leukemia after an intraperitoneal dose of 60 mg/kg for 9 days; Range is […]; type: functional, Mus musculus
structure (smiles),measurement,setting,value
CN(Cc1cnc2nc(N)nc(N)c2n1)c1ccc(C(=O)N[C@@H](CCCN)C(=O)O)cc1,Ki,[1],4000 nM
same,Ki,[2],20000 nM
CN(Cc1cnc2nc(N)nc(N)c2n1)c1ccc(C(=O)NC(CCCCCCC(=O)O)C(=O)O)cc1 (centres undefined),IC50,Dihydrofolate reductase,23 nM
same,ILS at 60 mg/kg,L1210 [3],105%
same,inhibition,[4],47%
same,ILS at 40 mg/kg,L1210 [5],93%
same,Survival,L1210 [6],17 days
same,IC50,CCRF-CEM [7],5800 nM
same,Weight change,L1210 [8],-1%
same,Range,L1210 [9],14 days
same,Survival,L1210 [10],12.6 days
same,Range,L1210 [11],9 days
same,Weight change,L1210 [12],4%
same,Range,L1210 [13],15 days
same,Survival,L1210 [14],18 days
same,IC50,L1210 [15],1.2 nM
same,Weight change,L1210 [16],-12%
same,Ki,[17],320000 nM
same,Survival,L1210 [18],14.8 days
same,IC50,CCRF-CEM [19],150 nM
same,Range,L1210 [20],17 days
same,ILS at 80 mg/kg,L1210 [21],43%
same,IC50,L1210 ( R81),68000 nM
same,Weight change,L1210 [22],4%
same,ILS at 20 mg/kg,L1210 [23],68%
Nc1nc(N)c2nc(CNc3ccc(C(=O)NC(CCCCCCCCCC(=O)O)C(=O)O)cc3)cnc2n1 (centres undefined),IC50,Dihydrofolate reductase,81 nM
same,inhibition,Mus musculus [24],90%
same,IC50,L1210 [15],0.65 nM
same,IC50,L1210 ( R81),110000 nM
same,Ki,[25],24000 nM
CN(Cc1cnc2nc(N)nc(N)c2n1)c1ccc(C(=O)NC(CCCCCCCCCCC(=O)O)C(=O)O)cc1 (centres undefined),IC50,Dihydrofolate reductase,26 nM
same,ILS at 60 mg/kg,L1210 [3],97%
same,inhibition,Mus musculus [24],59%
same,ILS at 40 mg/kg,L1210 [5],116%
same,Survival,L1210 [6],19 days
same,IC50,CCRF-CEM [7],10000 nM
same,Weight change,L1210 [8],3%
same,Survival,L1210 [10],10 days
same,Weight change,L1210 [12],2%
same,Survival,L1210 [14],17.3 days
same,IC50,L1210 [15],26 nM
same,Weight change,L1210 [16],4%
same,Survival,L1210 [18],20.4 days
same,Range,L1210 [26],19 days
same,IC50,CCRF-CEM [19],640 nM
same,Range,L1210 [27],9 days
same,Range,L1210 [28],12 days
same,ILS at 80 mg/kg,L1210 [21],14%
same,IC50,L1210 ( R81),56000 nM
same,Weight change,L1210 [22],3%
same,ILS at 20 mg/kg,L1210 [23],137%
same,Range,L1210 [29],9 days
CN(Cc1cnc2nc(N)nc(N)c2n1)c1ccc(C(=O)NC(CCCCCCCCCC(=O)O)C(=O)O)cc1 (centres undefined),IC50,Dihydrofolate reductase,34 nM
same,ILS at 60 mg/kg,L1210 [3],100%
same,ILS at 40 mg/kg,L1210 [5],95%
same,Survival,L1210 [6],17.2 days
same,Range,L1210 [30],16 days
same,IC50,CCRF-CEM [7],10000 nM
same,Weight change,L1210 [8],3%
same,inhibition,Mus musculus [31],53%
same,Survival,L1210 [10],15.2 days
same,Range,L1210 [32],12 days
same,Weight change,L1210 [12],5%
same,Survival,L1210 [14],17.6 days
same,Range,L1210 [33],14 days
same,IC50,L1210 [15],7.1 nM
same,Weight change,L1210 [16],2%
same,Survival,L1210 [18],17.4 days
same,IC50,CCRF-CEM [19],16 nM
same,ILS at 80 mg/kg,L1210 [21],73%
same,IC50,L1210 ( R81),58000 nM
same,Weight change,L1210 [22],6%
same,ILS at 20 mg/kg,L1210 [23],98%
same,Range,L1210 [34],15 days

# From ChEMBL document CHEMBL1124261 (J Med Chem, 1988)
